Reference: patent US20220305012A1, “L[…] TREATING SLEEP ISSUES” (EISAI R&D MANAGEMENT CO., LTD., priority 2019, published 2022)

Key:
[1] = test system: Subjects Having Insomnia Disorder; assay: Example 2: auditory awakening threshold
[2] = test system: Subjects Having Insomnia Disorder; assay: Example 2: Insomnia Severity Index Daytime Functioning (Items 4-7); type: in vivo, human; conditions: for Insomnia Severity Daytime Functioning (Items 4-7), Change from Study Baseline, Mean (SD) / Insomnia Severity Daytime Functioning (Items 4-7), Change from Study Baseline, Median / Insomnia Severity Daytime Functioning (Items 4-7), Mean (SD) / Insomnia Severity Daytime Functioning (Items 4-7), Median: Day 31
Source text: As used herein, the term “Insomnia Severity Index”, abbreviated as “ISI”, is an index calculated using a 7-item, self-report questionnaire assessing the nature, severity, and impact of insomnia (see Bastien, C. H., et al. “Validation of the Insomnia Severity Index as an outcome measure for insomnia research.” Sleep Med. 2001; 2(4): 297-307). The questionnaire evaluates: (1) severity of sleep onset; (2) sleep maintenance; (3) early morning awakening problems; (4) sleep dissatisfaction; (5) interference caused by sleep difficulties with daytime functioning; (6) noticeability of sleep problems by others; and (7) distress caused by the sleep difficulties. A 5-point scale is used to rate each item (0=no problem to 4=very severe problem) yielding a total score from 0 to 28. Total ISI score (items (1)-(7)) and daytime functioning (items (4)-(7)) are analyzed separately.
On day 1 of the baseline period, subjects were admitted to the clinic and ISI, FSS, and EQ-5D-3L were administered. Blood and urine samples were collected for routine safety assessments, an ECG was performed, and vital signs and weight were assessed. The eC-SSRS was administered. Subjects who completed the baseline period and continued to meet the eligibility criteria were randomized and began the randomization phase.
On the evening of Day 30, subjects returned to the clinic. A pre-dose blood sample was collected and study drug was again administered within 5 minutes of the subject's mean habitual bedtime. A polysomnogram recording was initiated. The following morning (Day 31), postural stability and cognitive performance were assessed and a blood sample was obtained. The ISI, FSS, EQ-5D-3L and PGI-Insomnia were administered. Blood and urine samples were collected for routine safety assessment. An electrocardiogram was performed, and vital signs and weight were assessed. The eC-SSRS was then administered to the subject. At 1.5 hours after waketime, subjects rated their morning sleepiness level.

[3] = test system: Subjects Having Insomnia Disorder; assay: Example 2: subjective total sleep time (sTST), sleep diary; type: in vivo, human
Source text: As used herein, the term “subjective total sleep time”, abbreviated as “sTST”, means the derived minutes of sleep from sleep onset until the time the subject stopped trying to sleep for the night. In some embodiments, sTST is derived from data entered in a subject's Sleep Diary.
(§1) In some embodiments, sleep diaries were used to assess sleep parameters reported by subjects (i.e., subjective assessments) including subjective sleep onset latency (sSOL), subjective sleep efficiency (sSE), subjective WASO (sWASO), and subjective total sleep time (sTST). Subjects were instructed to complete the Sleep Diary developed based on the consensus Sleep Diary as described in Carney et al., “The consensus sleep diary: standardizing prospective sleep self-monitoring,” Sleep 2012; 35(2):287-302. In some embodiments, the Sleep Diary was used to assess the subject's global perception of quality of sleep on the previous night with the following question: “How would you rate the quality of your sleep last night?” Subjects rated the quality of their sleep on a scale from 1 to 9, with 1 being extremely poor and 9 being extremely good. In some embodiments, the Sleep Diary was used to assess subjective ratings of morning sleepiness with the following question: “How alert/sleepy do you feel this morning?” Subjects rated their sleepiness/alertness level on a Likert scale from 1 to 9, with 1 being extremely sleepy and 9 being extremely alert.
sTST—subjective total sleep time: derived minutes of sleep from sleep onset until the time the subject stopped trying to sleep for the night.
(§2) The treatment period lasted for 31 days. Subjects were randomized in a double-blind manner and received placebo, a tablet containing 5 mg of lemborexant, a tablet containing 10 mg of lemborexant, or a tablet containing 6.25 mg of zolpidem ER.
(§3) Once home, the subject ingested study drug each night prior to bedtime and completed their sleep diary within 1 hour of waketime.

[4] = test system: Subjects Having Insomnia Disorder; assay: Example 2: subjective wake after sleep onset (sWASO), sleep diary; type: in vivo, human
Source text: As used herein, the term “subjective wake after sleep onset”, abbreviated as “sWASO”, means the sum of estimated minutes of wake during the night after initial sleep onset until the time the subject stopped trying to sleep for the night, operationalized as the time the subject got out of bed for the day. In some embodiments, sWASO is derived from data entered in a subject's Sleep Diary. As used herein, an “improvement of sWASO” means a reduction in sWASO.
as §1
sWASO—subjective wake after sleep onset: sum of estimated minutes of wake during the night after initial sleep onset until the time the subject stopped trying to sleep for the night, operationalized as the time the subject got out of bed for the day.
as §2, §3

[5] = First 7 Nights of Treatment, Lemborexant 5 mg
[6] = First 7 Nights of Treatment, Lemborexant 10 mg
[7] = Last 7 Nights of Treatment, Lemborexant 5 mg
[8] = Last 7 Nights of Treatment, Lemborexant 10 mg
[9] = First 7 Nights of Treatment, Zolpidem ER 6.25 mg
[10] = Last 7 Nights of Treatment, Zolpidem ER 6.25 mg

Cc1ncc(OC[C@@]2(c3cccc(F)c3)C[C@H]2C(=O)Nc2ccc(F)cn2)c(C)n1 [Lemborexant, (1R,2S)-2-(((2,4-dimethylpyrimidin-5-yl)oxy)methyl)-2-(3-fluorophenyl)-N-(5-fluoropyridin-2-yl)cyclopropanecarboxamide]
Auditory Awakening Threshold, LSM - Difference vs. Placebo ([1]; Lemborexant 5 mg): 1.7
Auditory Awakening Threshold, Mean (SD) ([1]; Lemborexant 5 mg): 51.8
Auditory Awakening Threshold, Median ([1]; Lemborexant 5 mg): 50.0
Auditory Awakening Threshold, LSM - Difference vs. Placebo ([1]; Lemborexant 10 mg): −0.9
Auditory Awakening Threshold, Mean (SD) ([1]; Lemborexant 10 mg): 51.7
Auditory Awakening Threshold, Median ([1]; Lemborexant 10 mg): 52.5
ability to be awakened by an external stimulus (auditory awakening threshold) ([1]; Table 27): did not interfere with a subject's ability to be awakened by an external stimulus
Insomnia Severity Daytime Functioning (Items 4-7), Change from Study Baseline, Mean (SD) ([2]; Lemborexant 5 mg): −4.83 (3.593)
Insomnia Severity Daytime Functioning (Items 4-7), Change from Study Baseline, Median ([2]; Lemborexant 5 mg): −4.00
Insomnia Severity Daytime Functioning (Items 4-7), Mean (SD) ([2]; Lemborexant 5 mg): 6.12 (3.488)
Insomnia Severity Daytime Functioning (Items 4-7), Median ([2]; Lemborexant 5 mg): 6.00
Insomnia Severity Daytime Functioning (Items 4-7), Change from Study Baseline, Mean (SD) ([2]; Lemborexant 10 mg): −4.77 (3.735)
Insomnia Severity Daytime Functioning (Items 4-7), Change from Study Baseline, Median ([2]; Lemborexant 10 mg): −4.00
Insomnia Severity Daytime Functioning (Items 4-7), Mean (SD) ([2]; Lemborexant 10 mg): 6.10 (3.617)
Insomnia Severity Daytime Functioning (Items 4-7), Median ([2]; Lemborexant 10 mg): 6.00
mean insomnia severity index daytime score ([2]; lemborexant treatment groups, relative to baseline and the placebo treatment group (Table 23)): reduced
mean subjective total sleep time ([3]; 10 mg, relative to baseline, placebo and zolpidem treatment groups (Table 21)): increased
Subjective Total Sleep Time, Change from Study Baseline, Mean (SD) [3, 5]: 50.30 (60.065)
Subjective Total Sleep Time, Mean (SD) [3, 5]: 322.66 (89.706)
Subjective Total Sleep Time, Model-adjusted change from baseline [3, 5]: 51.14
Subjective Total Sleep Time, Change from Study Baseline, Mean (SD) [3, 6]: 67.80 (71.134)
Subjective Total Sleep Time, Mean (SD) [3, 6]: 332.92 (91.538)
Subjective Total Sleep Time, Model-adjusted change from baseline [3, 6]: 66.59
Subjective Total Sleep Time, Change from Study Baseline, Mean (SD) [3, 7]: 62.41 (68.555)
Subjective Total Sleep Time, Mean (SD) [3, 7]: 334.22 (94.339)
Subjective Total Sleep Time, Model-adjusted change from baseline [3, 7]: 64.22
Subjective Total Sleep Time, Change from Study Baseline, Mean (SD) [3, 8]: 79.95 (81.211)
Subjective Total Sleep Time, Mean (SD) [3, 8]: 343.68 (95.785)
Subjective Total Sleep Time, Model-adjusted change from baseline [3, 8]: 78.47
mean subjective wake after sleep onset ([4]; 10 mg, relative to baseline, placebo and zolpidem treatment groups (Table 20)): reduced
Subjective Wake After Sleep Onset, Change from Study Baseline, Mean (SD) [4, 5]: −39.33 (55.022)
Subjective Wake After Sleep Onset, Mean (SD) [4, 5]: 127.37 (78.303)
Subjective Wake After Sleep Onset, Model-adjusted change from baseline [4, 5]: −39.97
Subjective Wake After Sleep Onset, Change from Study Baseline, Mean (SD) [4, 6]: −55.06 (66.696)
Subjective Wake After Sleep Onset, Mean (SD) [4, 6]: 119.78 (74.825)
Subjective Wake After Sleep Onset, Model-adjusted change from baseline [4, 6]: −53.90
Subjective Wake After Sleep Onset, Change from Study Baseline, Mean (SD) [4, 7]: −44.51 (58.090)
Subjective Wake After Sleep Onset, Mean (SD) [4, 7]: 119.30 (81.645)
Subjective Wake After Sleep Onset, Model-adjusted change from baseline [4, 7]: −47.55
Subjective Wake After Sleep Onset, Change from Study Baseline, Mean (SD) [4, 8]: −57.96 (72.791)
Subjective Wake After Sleep Onset, Mean (SD) [4, 8]: 117.08 (83.753)
Subjective Wake After Sleep Onset, Model-adjusted change from baseline [4, 8]: −56.64

Cc1ccc(-c2nc3ccc(C)cn3c2CC(=O)N(C)C)cc1 [Zolpidem ER, zolpidem, reference compound]
Auditory Awakening Threshold, LSM - Difference vs. Placebo ([1]; Zolpidem 6.25 mg): 7.2
Auditory Awakening Threshold, Mean (SD) ([1]; Zolpidem 6.25 mg): 58.4
Auditory Awakening Threshold, Median ([1]; Zolpidem 6.25 mg): 55.0
Insomnia Severity Daytime Functioning (Items 4-7), Change from Study Baseline, Mean (SD) ([2]; Zolpidem ER 6.25 mg): −5.24 (3.764)
Insomnia Severity Daytime Functioning (Items 4-7), Change from Study Baseline, Median ([2]; Zolpidem ER 6.25 mg): −5.00
Insomnia Severity Daytime Functioning (Items 4-7), Mean (SD) ([2]; Zolpidem ER 6.25 mg): 5.87 (3.417)
Insomnia Severity Daytime Functioning (Items 4-7), Median ([2]; Zolpidem ER 6.25 mg): 6.00
Subjective Total Sleep Time, Change from Study Baseline, Mean (SD) [3, 9]: 56.99 (62.880)
Subjective Total Sleep Time, Mean (SD) [3, 9]: 325.64 (81.845)
Subjective Total Sleep Time, Model-adjusted change from baseline [3, 9]: 57.71
Subjective Total Sleep Time, Change from Study Baseline, Mean (SD) [3, 10]: 71.01 (76.574)
Subjective Total Sleep Time, Mean (SD) [3, 10]: 340.20 (83.582)
Subjective Total Sleep Time, Model-adjusted change from baseline [3, 10]: 71.04
Subjective Wake After Sleep Onset, Change from Study Baseline, Mean (SD) [4, 9]: −48.91 (51.761)
Subjective Wake After Sleep Onset, Mean (SD) [4, 9]: 124.83 (75.279)
Subjective Wake After Sleep Onset, Model-adjusted change from baseline [4, 9]: −48.09
Subjective Wake After Sleep Onset, Change from Study Baseline, Mean (SD) [4, 10]: −63.52 (64.161)
Subjective Wake After Sleep Onset, Mean (SD) [4, 10]: 109.63 (72.583)
Subjective Wake After Sleep Onset, Model-adjusted change from baseline [4, 10]: −62.00
